# Source: patent US20240092784A1, “CONDENSED HETEROCYCLIC COMPOUND” (NISSAN CHEMICAL CORPORATION, priority 2020, published 2024)
# pIC50: −log10 of the molar value. Structures can show the parent of a compound that is named as a salt. Where two headings read alike, the source gives them in different places.
# Target: human SPR (Homo sapiens (Human), UniProt P35270)
# Assay: Evaluation Example 2: Measurement of human SPR inhibitory activity (seven concentrations, sepiapterin absorbance at 420 nm)
# Format: biochemical
# Summary of the method: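 Reactions ran 240 min at room temperature in 100 mM Tris-HCl pH 7.5 with 0.01% BSA. They contained tag-cleaved, E. coli-expressed full-length human SPR (diluted to 150 ng/mL), seven compound concentrations from 0.14 to 100 nM, and sepiapterin/NADPH added as a 120 μM/160 μM solution. Inhibition was calculated from sepiapterin absorbance at 420 nm.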
# [1] = sepiapterin absorbance, Table 41, read-out: concentration at 50% inhibition of human SPR (IC50)
# [2] = Evaluation Example 2, seven concentrations 0.14 nM to 100 nM, 240 minutes at room temperature, read-out: IC50
# Chain of human SPR (P35270 whole entry): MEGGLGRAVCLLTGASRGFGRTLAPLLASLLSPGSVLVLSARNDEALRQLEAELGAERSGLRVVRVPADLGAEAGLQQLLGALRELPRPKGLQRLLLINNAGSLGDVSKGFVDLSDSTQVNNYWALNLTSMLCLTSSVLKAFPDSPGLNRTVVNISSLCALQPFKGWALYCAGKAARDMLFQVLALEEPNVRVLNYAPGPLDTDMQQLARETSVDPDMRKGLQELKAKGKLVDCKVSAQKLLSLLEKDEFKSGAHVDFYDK
SMILES,pIC50 [1],pIC50 [2]
"CC(C)Cn1c(=O)c(C(=O)NC2CC2)c(O)n2ncc(/C=C/C(=O)N3CCc4ccncc43)c12 [Synthesis Example 742, (E)-N-Cyclopropyl-3-(3-(2,3-dihydro-1H-pyrrolo[2,3-c]pyridin-1-yl)-3-oxoprop-1-en-1-yl)-7-hydroxy-4-isobutyl-5-oxo-4,5-dihydropyrazolo[1,5-a]pyrimidine-6-carboxamide]",8.80,
"CC(C)Cn1c(=O)c(C(=O)NC2CC2)c(O)n2ncc(/C=C/C(=O)N3CC[C@@H](C(C)(C)O)C3)c12 [Synthesis Example 743, (R,E)-N-Cyclopropyl-7-hydroxy-3-(3-(3-(2-hydroxypropan-2-yl)pyrrolidin-1-yl)-3-oxoprop-1-en-1-yl)-4-isobutyl-5-oxo-4,5-dihydropyrazolo[1,5-a]pyrimidine-6-carboxamide]",8.88,
"CC(C)Cn1c(=O)c(C(=O)NC2CC2)c(O)n2ncc(/C=C/C(=O)N3CCN(CC4CC(F)(F)C4)C[C@@H]3C)c12 [Synthesis Example 744, (S,E)-N-Cyclopropyl-3-(3-(4-((3,3-difluorocyclobutyl)methyl)-2-methylpiperazin-1-yl)-3-oxoprop-1-en-1-yl)-7-hydroxy-4-isobutyl-5-oxo-4,5-dihydropyrazolo[1,5-a]pyrimidine-6-carboxamide]",8.80,
"CC(C)Cn1c(=O)c(C(=O)NC2CC2)c(O)n2ncc(/C=C/C(=O)N3CCN(CC4CC(F)(F)C4)C[C@H]3C)c12 [Synthesis Example 745, (R,E)-N-Cyclopropyl-3-(3-(4-((3,3-difluorocyclobutyl)methyl)-2-methylpiperazin-1-yl)-3-oxoprop-1-en-1-yl)-7-hydroxy-4-isobutyl-5-oxo-4,5-dihydropyrazolo[1,5-a]pyrimidine-6-carboxamide]",8.73,
"CC(C)Cn1c(=O)c(C(=O)NC2CC2)c(O)n2ncc(/C=C/C(=O)N3CCCC34CCN(C(C)C)CC4)c12 [Synthesis Example 746, (E)-N-Cyclopropyl-7-hydroxy-4-isobutyl-3-(3-(8-isopropyl-1,8-diazaspiro[4.5]decan-1-yl)-3-oxoprop-1-en-1-yl)-5-oxo-4,5-dihydropyrazolo[1,5-a]pyrimidine-6-carboxamide]",8.81,
"Cc1nn2c(O)c(C(=O)NC3CC3)c(=O)n(CC(C)(C)F)c2c1/C=C/C(=O)N1CCOCC1 [Synthesis Example 747, (E)-N-Cyclopropyl-4-(2-fluoro-2-methylpropyl)-7-hydroxy-2-methyl-3-(3-morpholino-3-oxoprop-1-en-1-yl)-5-oxo-4,5-dihydropyrazolo[1,5-a]pyrimidine-6-carboxamide]",9.13,
"CC(C)Cn1c(=O)c(C(=O)NC2CC2)c(O)n2ncc(/C=C/C(=O)N3CCC[C@@H]3c3cccnc3)c12 [Synthesis Example 748, (R,E)-N-Cyclopropyl-7-hydroxy-4-isobutyl-5-oxo-3-(3-oxo-3-(2-(pyridin-3-yl)pyrrolidin-1-yl)prop-1-en-1-yl)-4,5-dihydropyrazolo[1,5-a]pyrimidine-6-carboxamide]",9.00,
"Cc1nn2c(O)c(C(=O)NC3CC3)c(=O)n(CC(C)C)c2c1/C=C/C(=O)N1CCC[C@@H]1C#N [Synthesis Example 749, (R,E)-3-(3-(2-Cyanopyrrolidin-1-yl)-3-oxoprop-1-en-1-yl)-N-cyclopropyl-7-hydroxy-4-isobutyl-2-methyl-5-oxo-4,5-dihydropyrazolo[1,5-a]pyrimidine-6-carboxamide]",9.03,
"COCCN(C)C(=O)/C=C/c1c(C)nn2c(O)c(C(=O)NC3CC3)c(=O)n(CC(C)C)c12 [Synthesis Example 750, (E)-N-Cyclopropyl-7-hydroxy-4-isobutyl-3-(3-((2-methoxyethyl)(methyl)amino)-3-oxoprop-1-en-1-yl)-2-methyl-5-oxo-4,5-dihydropyrazolo[1,5-a]pyrimidine-6-carboxamide]",9.02,
"CCN1CCN(C(=O)/C=C/c2c(C)nn3c(O)c(C(=O)NC4CC4)c(=O)n(CC(C)C)c23)[C@H](C)C1 [Synthesis Example 751, (R,E)-N-Cyclopropyl-3-(3-(4-ethyl-2-methylpiperazin-1-yl)-3-oxoprop-1-en-1-yl)-7-hydroxy-4-isobutyl-2-methyl-5-oxo-4,5-dihydropyrazolo[1,5-a]pyrimidine-6-carboxamide]",8.87,
"Cc1nn2c(O)c(C(=O)NC3CC3)c(=O)n(CC(C)C)c2c1/C=C/C(=O)N1CCc2cncnc21 [Synthesis Example 752, (E)-N-Cyclopropyl-3-(3-(5,6-dihydro-7H-pyrrolo[2,3-d]pyrimidin-7-yl)-3-oxoprop-1-en-1-yl)-7-hydroxy-4-isobutyl-2-methyl-5-oxo-4,5-dihydropyrazolo[1,5-a]pyrimidine-6-carboxamide]",9.06,
"Cc1nn2c(O)c(C(=O)NC3CC3)c(=O)n(CC(C)C)c2c1/C=C/C(=O)N1C[C@@H]2C[C@H]1CO2 [Synthesis Example 753, 3-((E)-3-((1S,4S)-2-Oxa-5-azabicyclo[2.2.1]heptan-5-yl)-3-oxoprop-1-en-1-yl)-N-cyclopropyl-7-hydroxy-4-isobutyl-2-methyl-5-oxo-4,5-dihydropyrazolo[1,5-a]pyrimidine-6-carboxamide]",9.32,
"Cc1nn2c(O)c(C(=O)NC3CC3)c(=O)n(CC(C)C)c2c1/C=C/C(=O)N1C[C@H]2C[C@@H]1CO2 [Synthesis Example 754, 3-((E)-3-((1R,4R)-2-Oxa-5-azabicyclo[2.2.1]heptan-5-yl)-3-oxoprop-1-en-1-yl)-N-cyclopropyl-7-hydroxy-4-isobutyl-2-methyl-5-oxo-4,5-dihydropyrazolo[1,5-a]pyrimidine-6-carboxamide]",9.08,
"CC(C)(C)Cn1c(=O)c(C(=O)NC2CC2)c(O)n2nc(N)c(Cl)c12 [compound 447, 2-Amino-3-chloro-N-cyclopropyl-7-hydroxy-4-neopentyl-5-oxo-4,5-dihydropyrazolo[1,5-a]pyrimidine-6-carboxamide hydrochloride]",,8.67
"CC(C)(C)Cn1c(=O)c(C(=O)NC2CC2)c(O)n2nc(-c3cccnc3N)c(Br)c12 [compound 448, 2-(2-Aminopyridin-3-yl)-3-bromo-N-cyclopropyl-7-hydroxy-4-neopentyl-5-oxo-4,5-dihydropyrazolo[1,5-a]pyrimidine-6-carboxamide]",,8.09
"CC(C)Cn1c(=O)c(C(=O)NC2CC2)c(O)n2nc(-c3cccnc3N)c(/C=C/C(=O)N3CCOCC3)c12 [compound 449, (E)-2-(2-Aminopyridin-3-yl)-N-cyclopropyl-7-hydroxy-4-isobutyl-3-(3-morpholino-3-oxoprop-1-en-1-yl)-5-oxo-4,5-dihydropyrazolo[1,5-a]pyrimidine-6-carboxamide]",,9.08
"CC(C)Cn1c(=O)c(C(=O)NC2CC2)c(O)n2nc(C(N)=O)c(/C=C/C(=O)N3CCOCC3)c12 [compound 450, (E)-N6-Cyclopropyl-7-hydroxy-4-isobutyl-3-(3-morpholino-3-oxoprop-1-en-1-yl)-5-oxo-4,5-dihydropyrazolo[1,5-a]pyrimidine-2,6-dicarboxamide]",,9.22
"CC(C)Cn1c(=O)c(C(=O)NC2CC2)c(O)n2nc(C(N)=O)c(/C=C/C3CCOCC3)c12 [compound 451, (E)-N6-Cyclopropyl-7-hydroxy-4-isobutyl-5-oxo-3-(2-(tetrahydro-2H-pyran-4-yl)vinyl)-4,5-dihydropyrazolo[1,5-a]pyrimidine-2,6-dicarboxamide]",,9.16
"CC(C)Cn1c(=O)c(C(=O)NC2CC2)c(O)n2ncc(/C=C/C(=O)N3CCCC3)c12 [compound 452, (E)-N-Cyclopropyl-7-hydroxy-4-isobutyl-5-oxo-3-(3-oxo-3-(pyrrolidin-1-yl)prop-1-en-1-yl)-4,5-dihydropyrazolo[1,5-a]pyrimidine-6-carboxamide]",,9.08
"CC(C)Cn1c(=O)c(C(=O)NC2CC2)c(O)n2ncc(/C=C/C(=O)N3CCC(F)(F)C3)c12 [compound 453, (E)-N-Cyclopropyl-3-(3-(3,3-difluoropyrrolidin-1-yl)-3-oxoprop-1-en-1-yl)-7-hydroxy-4-isobutyl-5-oxo-4,5-dihydropyrazolo[1,5-a]pyrimidine-6-carboxamide]",,9.09
"CC(C)Cn1c(=O)c(C(=O)NC2CC2)c(O)n2ncc(/C=C/C(=O)N3CC[C@H](F)C3)c12 [compound 454, (S,E)-N-Cyclopropyl-3-(3-(3-fluoropyrrolidin-1-yl)-3-oxoprop-1-en-1-yl)-7-hydroxy-4-isobutyl-5-oxo-4,5-dihydropyrazolo[1,5-a]pyrimidine-6-carboxamide]",,9.12
"CC(C)Cn1c(=O)c(C(=O)NC2CC2)c(O)n2ncc(/C=C/C(=O)N3CCOC[C@@H]3C)c12 [compound 455, (S,E)-N-Cyclopropyl-7-hydroxy-4-isobutyl-3-(3-(3-methylmorpholino)-3-oxoprop-1-en-1-yl)-5-oxo-4,5-dihydropyrazolo[1,5-a]pyrimidine-6-carboxamide]",,9.14
"CC(C)Cn1c(=O)c(C(=O)NC2CC2)c(O)n2ncc(/C=C/C(=O)N3CC4CCC(C3)O4)c12 [compound 456, (E)-3-(3-(8-Oxa-3-azabicyclo[3.2.1]octan-3-yl)-3-oxoprop-1-en-1-yl)-N-cyclopropyl-7-hydroxy-4-isobutyl-5-oxo-4,5-dihydropyrazolo[1,5-a]pyrimidine-6-carboxamide]",,9.24
"CC(C)Cn1c(=O)c(C(=O)NC2CC2)c(O)n2ncc(/C=C/C(=O)N3[C@@H](C)COC[C@@H]3C)c12 [compound 457, N-Cyclopropyl-3-((E)-3-((3S,5S)-3,5-dimethylmorpholino)-3-oxoprop-1-en-1-yl)-7-hydroxy-4-isobutyl-5-oxo-4,5-dihydropyrazolo[1,5-a]pyrimidine-6-carboxamide]",,9.09
"CC(C)Cn1c(=O)c(C(=O)NC2CC2)c(O)n2ncc(/C=C/C(=O)N3CCC[C@@H]3C)c12 [compound 458, (S,E)-N-Cyclopropyl-7-hydroxy-4-isobutyl-3-(3-(2-methylpyrrolidin-1-yl)-3-oxoprop-1-en-1-yl)-5-oxo-4,5-dihydropyrazolo[1,5-a]pyrimidine-6-carboxamide]",,9.10
